Experiment: MAD study: predose plasma adrenocorticotropic hormone (ACTH)
Assay type: in vivo, human
From the text: Table 10 presents mean predose plasma ACTH concentrations over time and change and percent change from Day 1 to Day 10 predose concentrations by treatment group for the PD Population.

Question: What does the source list for `CCC(=O)N[C@@H]1CCCc2c(-c3ccc4c(c3)CCC(=O)N4C)cncc21` [(R)-Compound 1, (R)—N-(4-(1-methyl-2-oxo-1,2,3,4-tetrahydroquinolin-6-yl)-5,6,7,8-tetrahydroisoquinolin-8-yl)propionamide]?
Answer: Plasma ACTH, change from Day 1 to Day 10, predose, mean (0.5 mg, normal salt diet): -0.15 pmol/L; Plasma ACTH, percent change from Day 1 to Day 10, predose, mean (0.5 mg, normal salt diet): −2.01%; Plasma ACTH, change from Day 1 to Day 10, predose, mean (1.5 mg, normal salt diet): -1.63 pmol/L; Plasma ACTH, percent change from Day 1 to Day 10, predose, mean (1.5 mg, normal salt diet): −24.00%; Plasma ACTH, change from Day 1 to Day 10, predose, mean (2.5 mg, low salt diet): 2.11 pmol/L; Plasma ACTH, percent change from Day 1 to Day 10, predose, mean (2.5 mg, low salt diet): 184.44%; Plasma ACTH, change from Day 1 to Day 10, predose, mean (2.5 mg, normal salt diet): -4.04 pmol/L; Plasma ACTH, percent change from Day 1 to Day 10, predose, mean (2.5 mg, normal salt diet): −35.69%; Plasma ACTH, change from Day 1 to Day 10, predose, mean (5.0 mg, low salt diet): 1.57 pmol/L; Plasma ACTH, percent change from Day 1 to Day 10, predose, mean (5.0 mg, low salt diet): 125.86%; Predose plasma ACTH, mean (Day 1, predose, 0.5 mg, normal salt diet): 3.91 pmol/L; Predose plasma ACTH, mean (Day 1, predose, 1.5 mg, normal salt diet): 6.30 pmol/L; Predose plasma ACTH, mean (Day 1, predose, 2.5 mg, low salt diet): 1.47 pmol/L; Predose plasma ACTH, mean (Day 1, predose, 2.5 mg, normal salt diet): 6.40 pmol/L; Predose plasma ACTH, mean (Day 1, predose, 5.0 mg, low salt diet): 1.96 pmol/L; Predose plasma ACTH, mean (Day 10, predose, 0.5 mg, normal salt diet): 3.76 pmol/L; Predose plasma ACTH, mean (Day 10, predose, 1.5 mg, normal salt diet): 4.67 pmol/L; Predose plasma ACTH, mean (Day 10, predose, 2.5 mg, low salt diet): 3.59 pmol/L; Predose plasma ACTH, mean (Day 10, predose, 2.5 mg, normal salt diet): 2.80 pmol/L; Predose plasma ACTH, mean (Day 10, predose, 5.0 mg, low salt diet): 3.52 pmol/L; ACTH increase compared to placebo (low salt diet conditions (Cohorts 1 and 2)): somewhat more pronounced; ACTH (normal salt diet conditions): apparent dose-dependent decreases

From patent US20240277698A1, “METHODS OF USING ALDOSTERONE SYNTHASE INHIBITORS” (CINCOR PHARMA, INC., priority 2021, published 2024)
